Where two headings read alike, the source gives them in different places.
Assays:
[1] = tested on: human SKM-1 acute myeloid leukemia cells; test: SKM-1 antiproliferation cell-based assay (ATPlite); details: Homo sapiens
Summary of the method: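 Log-phase cells in RPMI 1640/15% FBS were seeded at 34722 cells/mL and exposed for 4 days to nine-concentration DMSO serial dilutions in triplicate. Viability was read as ATP luminescence (ATPlite 1step), and IC50 values came from variable-slope non-linear regression.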

[2] = target: T1, human BRD4 bromodomain II (Homo sapiens, UniProt O60885); test: Bromodomain binding assay (AlphaScreen), BRD4 BDII
T1 construct: human BRD4 bromodomain II [based on Genbank NM_058243, residues 349-460]; host or cells: E. coli
Summary of the method: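 Inhibition of acetyl-H4 peptide binding to human BRD4 bromodomains is measured by bead-based proximity (AlphaScreen) in pH 7.5 HEPES buffer containing 0.05% CHAPS and 0.1% BSA. Ten compound concentrations in 3-fold steps give competitive binding IC50s.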

[3] = SKM-1, 96 h, SKM-1 antiproliferation assay, 4 days, Table C2
[4] = AlphaScreen assay, Table C2, read-out: BRD4 BDII IC50
[5] = SKM-1, SKM-1 antiproliferation assay
[6] = BRD4 BDII AlphaScreen assay, read-out: BRD4 BD2 IC50

Compound | GI50 [1, 3] [nM] | IC50 [2, 4] [nM] | GI50 [1, 5] [nM] | IC50 [2, 6] [nM]
CC(=O)Nc1ccc(-c2cccc(-c3ccc(C(F)(F)F)c(N4CCNCC4)c3)c2O)cc1F [Example 336, N-(3-fluoro-2′-hydroxy-3″-(piperazin-1-yl)-4″-(trifluoromethyl)-[1,1′:3′,1″-terphenyl]-4-yl)acetamide acetate] | 300 to 3000 | 10 to 100 |  | 
C[C@@H]1CN(c2cc(-c3cc(F)cc(-c4ccc(-n5ccn(C)c5=O)c(Cl)c4)c3N)ccn2)CCN1 [Example 542, (R)-1-(2′-amino-3-chloro-5′-fluoro-3′-(2-(3-methylpiperazin-1-yl)pyridin-4-yl)-[1,1′-biphenyl]-4-yl)-3-methyl-1H-imidazol-2(3H)-one] | 30 to 300 | 1 to 10 |  | 
CC(C)Oc1cc(-c2cc(F)cc(-c3ccnc(N4CCNCC4)c3)c2O)cc(Cl)c1-n1ccn(C)c1=O [Example 434, 1-(3-chloro-5′-fluoro-2′-hydroxy-5-isopropoxy-3′-(2-(piperazin-1-yl)pyridin-4-yl)-[1,1′-biphenyl]-4-yl)-3-methyl-1H-imidazol-2(3H)-one] | 300 to 3000 | 10 to 100 |  | 
COCCN1CCN(c2cc(-c3cc(F)cc(-c4ccc(-n5ccn(C)c5=O)c(Cl)c4)c3O)ccn2)CC1 [Example 645, 1-(3-chloro-5′-fluoro-2′-hydroxy-3′-(2-(4-(2-methoxyethyl)piperazin-1-yl)pyridin-4-yl)-[1,1′-biphenyl]-4-yl)-3-methyl-1H-imidazol-2(3H)-one] | 0.3 to 30 | 0.01 to 1 |  | 
CC(C)N1CCN(c2cc(-c3cc(F)cc(-c4ccc(-n5ccn(C)c5=O)c(Cl)c4)c3O)ccc2F)CC1 [Example 720, 1-(3-chloro-4″,5′-difluoro-2′-hydroxy-3″-(4-isopropylpiperazin-1-yl)-[1,1′:3′,1″-terphenyl]-4-yl)-3-methyl-1H-imidazol-2(3H)-one] | 0.3 to 30 | 0.01 to 1 |  | 
CNc1ncc(-c2nc(C)cc(-c3ccc(-n4ccn(C)c4=O)c(Cl)c3)c2O)cc1N1CCN(C(C)(C)C)CC1 [Example 963, 1-(4-(5′-(4-(tert-butyl)piperazin-1-yl)-3-hydroxy-6-methyl-6′-(methylamino)-[2,3′-bipyridin]-4-yl)-2-chlorophenyl)-3-methyl-1H-imidazol-2(3H)-one] |  |  | 0.3 to 30 | 1 to 10
Cn1ccn(-c2ccc(-c3cc(F)cc(-c4cc(Cl)c(F)c(N5CCN(C(C)(C)C)CC5)c4)c3O)cc2Cl)c1=O [Example 904] |  |  | 30 to 300 | 0.01 to 1
Cn1ccn(-c2ccc(-c3cc(F)cc(-c4cccc(N5CCN(C(C)(C)C)CC5)c4)c3O)nc2)c1=O [Example 944, 1-(6-(3′-(4-(tert-butyl)piperazin-1-yl)-5-fluoro-2-hydroxy-[1,1′-biphenyl]-3-yl)pyridin-3-yl)-3-methyl-1H-imidazol-2(3H)-one] |  |  | 300 to 3000 | > 100
CN1CCN(c2ccc(-c3cc(F)cc(-c4cccc(N5CCN(C(C)(C)C)CC5)c4)c3O)cc2Cl)C1=O [Example 918, 1-(3″-(4-(tert-butyl)piperazin-1-yl)-3-chloro-5′-fluoro-2′-hydroxy-[1,1′:3′,1″-terphenyl]-4-yl)-3-methylimidazolidin-2-one] |  |  | 0.3 to 30 | 1 to 10
Cc1cc(-c2cccc(N3CCN(C(C)(C)C)CC3)c2)c(O)c(-c2ccc(-n3ccn(C)c3=O)c(Cl)c2)c1 [Example 1016, 1-(3″-(4-(tert-butyl)piperazin-1-yl)-3-chloro-2′-hydroxy-5′-methyl-[1,1′:3′,1″-terphenyl]-4-yl)-3-methyl-1H-imidazol-2(3H)-one] |  |  | 0.3 to 30 | 0.01 to 1
O=C1CCCN1c1c(Cl)cc(-c2cc(F)cc(-c3ccnc(N4CCNCC4)c3)c2O)cc1Cl [Example 402, 1-(3,5-dichloro-5′-fluoro-2′-hydroxy-3′-(2-(piperazin-1-yl)pyridin-4-yl)-[1,1′-biphenyl]-4-yl)pyrrolidin-2-one] | 300 to 3000 | > 100 |  | 
CC(C)N1CCN(c2cncc(-c3cc(F)cc(-c4ccc(-n5ccn(C)c5=O)c(Cl)c4)c3O)c2)CC1 [Example 663, 1-(3-chloro-5′-fluoro-2′-hydroxy-3′-(5-(4-isopropylpiperazin-1-yl)pyridin-3-yl)-[1,1′-biphenyl]-4-yl)-3-methyl-1H-imidazol-2(3H)-one] | 0.3 to 30 | 0.01 to 1 |  | 
Cn1ccn(-c2ccc(-c3cc(F)cc(-c4ccnc(N5CCC[C@H](N)C5)c4)c3O)cc2Cl)c1=O [Example 411, (S)-1-(3′-(2-(3-aminopiperidin-1-yl)pyridin-4-yl)-3-chloro-5′-fluoro-2′-hydroxy-[1,1′-biphenyl]-4-yl)-3-methyl-1H-imidazol-2(3H)-one] | 0.3 to 30 | 0.01 to 1 |  | 
CC(=O)Nc1ccc(-c2cc(C)nc(-c3cccc(N4CCN(C(C)(C)C)CC4)c3)c2O)cc1Cl [Example 1007, N-(4-(2-(3-(4-(tert-butyl)piperazin-1-yl)phenyl)-3-hydroxy-6-methylpyridin-4-yl)-2-chlorophenyl)acetamide] |  |  | 0.3 to 30 | 1 to 10
Cn1ccn(-c2ccc(-c3cc(F)cc(-c4ccnc(N5CC6CNC(C6)C5)c4)c3O)cc2Cl)c1=O (stereo not drawn) [Example 554, 1-(3′-(2-(3,6-diazabicyclo[3.2.1]octan-3-yl)pyridin-4-yl)-3-chloro-5′-fluoro-2′-hydroxy-[1,1′-biphenyl]-4-yl)-3-methyl-1H-imidazol-2(3H)-one] | 0.3 to 30 | 1 to 10 |  | 
C[C@@H]1CN(c2cc(-c3cccc(-c4ccc(N5CCN(C)C5=O)c(F)c4)c3O)ccn2)CCN1 [Example 289, (R)-1-(3-fluoro-2′-hydroxy-3′-(2-(3-methylpiperazin-1-yl)pyridin-4-yl)-[1,1′-biphenyl]-4-yl)-3-methylimidazolidin-2-one] | 30 to 300 | 1 to 10 |  | 
CC(=O)Nc1ccc(-c2cc(F)cc(-c3ccnc(N4CC5(CNC5)C4)c3)c2O)cc1F [Example 321, N-(3′-(2-(2,6-diazaspiro[3.3]heptan-2-yl)pyridin-4-yl)-3,5′-difluoro-2′-hydroxy-[1,1′-biphenyl]-4-yl)acetamide] | 30 to 300 | 10 to 100 |  | 
Cc1cc(-c2ccc(-n3ccn(C)c3=O)c(F)c2)c(O)c(-c2cccc(N3CCN(C(C)(C)C)CC3)c2)n1 [Example 1003, 1-(4-(2-(3-(4-(tert-butyl)piperazin-1-yl)phenyl)-3-hydroxy-6-methylpyridin-4-yl)-2-fluorophenyl)-3-methyl-1H-imidazol-2(3H)-one] |  |  | 0.3 to 30 | 1 to 10
CC(=O)Nc1ccc(-c2cccc(-c3ccnc(N4CC[C@H](N)C4)c3)c2O)cc1F [Example 248, (S)-N-(3′-(2-(3-aminopyrrolidin-1-yl)pyridin-4-yl)-3-fluoro-2′-hydroxy-[1,1′-biphenyl]-4-yl)acetamide] | 30 to 300 | 1 to 10 |  | 
CC(C)c1cc(-c2cc(F)cc(-c3cccc(N4CCN(C(C)(C)C)CC4)c3)c2O)cc(Cl)c1-n1ccn(C)c1=O [Example 932, 1-(3″-(4-(tert-butyl)piperazin-1-yl)-3-chloro-5′-fluoro-2′-hydroxy-5-isopropyl-[1,1′:3′,1″-terphenyl]-4-yl)-3-methyl-1H-imidazol-2(3H)-one] |  |  | 300 to 3000 | > 100
Cc1cc(-c2ccnc(N3CC[C@H](N)C3)c2)c(O)c(-c2ccc(-n3ccn(C)c3=O)c(Cl)c2)c1 [Example 498, (S)-1-(3′-(2-(3-aminopyrrolidin-1-yl)pyridin-4-yl)-3-chloro-2′-hydroxy-5′-methyl-[1,1′-biphenyl]-4-yl)-3-methyl-1H-imidazol-2(3H)-one] | 0.3 to 30 | 0.01 to 1 |  | 
CC(=O)Nc1ccc(-c2cccc(-c3cc(F)nc(N4CCNCC4)c3)c2O)cc1F [Example 291, N-(3-fluoro-3′-(2-fluoro-6-(piperazin-1-yl)pyridin-4-yl)-2′-hydroxy-[1,1′-biphenyl]-4-yl)acetamide] | 300 to 3000 | 10 to 100 |  | 
Cn1cc(-c2cccc(N3CCN(C(C)(C)C)CC3)c2)c(O)c(-c2ccc(-n3ccn(C)c3=O)c(Cl)c2)c1=O [Example 1030, 5-(3-(4-(tert-Butyl)piperazin-1-yl)phenyl)-3-(3-chloro-4-(3-methyl-2-oxo-2,3-dihydro-1H-imidazol-1-yl)phenyl)-4-hydroxy-1-methylpyridin-2(1H)-one] |  |  | 300 to 3000 | 10 to 100
Cn1ccn(-c2ccc(-c3cc(F)cc(-c4ccnc(N5CCN(CCN)CC5)c4)c3O)cc2Cl)c1=O [Example 616, 1-(3′-(2-(4-(2-aminoethyl)piperazin-1-yl)pyridin-4-yl)-3-chloro-5′-fluoro-2′-hydroxy-[1,1′-biphenyl]-4-yl)-3-methyl-1H-imidazol-2(3H)-one] | 0.3 to 30 | 0.01 to 1 |  | 
Cn1ccn(-c2ccc(-c3cc(F)cc(-c4cnc(Cl)c(N5CCN(C(C)(C)C)CC5)c4)c3O)cc2Cl)c1=O [Example 789, 1-(3′-(5-(4-(tert-butyl)piperazin-1-yl)-6-chloropyridin-3-yl)-3-chloro-5′-fluoro-2′-hydroxy-[1,1′-biphenyl]-4-yl)-3-methyl-1H-imidazol-2(3H)-one] | 0.3 to 30 | 1 to 10 |  | 
CC(=O)Nc1ccc(-c2cc(F)cc(-c3ccnc(N4CCNCC4)c3)c2O)cc1Cl [Example 222, N-(3-chloro-5′-fluoro-2′-hydroxy-3′-(2-(piperazin-1-yl)pyridin-4-yl)-[1,1′-biphenyl]-4-yl)acetamide] | 300 to 3000 | 1 to 10 |  | 
Cn1ccn(-c2ccc(-c3cc(F)cc(-c4cc(N5CC6CCC(C5)N6)c5cn[nH]c5c4)c3O)cc2Cl)c1=O [Example 573] | 0.3 to 30 | 0.01 to 1 |  | 

— patent US20250179059A1 (The Regents of the University of California, priority 2021, published 2025)
